The nature of assay [1]: Corrosion testing of 316 steel coupons in acidic fluids with corrosion inhibitors. From the text:
Corrosion inhibitor compositions according to preferred embodiments of the present invention were exposed to corrosion testing. Various steel grades (stainless steel and carbon steel) were subjected to acid compositions comprising corrosion inhibitors according to the present invention against known corrosion inhibitors to the listed compositions for various periods of time at varying temperatures. A desirable corrosion inhibition result was one where the lb/ft^2 corrosion number is at or below 0.05. More preferably, that number is at or below 0.02.
33% HCl:MEA in a 5.5:1 ratio and 50% HCl:MEA in a 5.5:1 ratio indicate the volume amount of the original concentration of a stock solution containing HCl and monoethanolamine in a ratio of 5.5:1. The HCl loading of a 33% HCl:MEA in a 5.5:1 ratio is approximately 6.5% HCl. The HCl loading of 50% HCl:MEA in a 5.5:1 ratio is approximately 10% HCl.

Assay [2] in a line: Visual corrosion testing on grease-coated wireline (Example 7). Particulars: MEA-HCl 1:4.1 molar ratio at 33% dilution in water; 48 hours; 60° C. How it is done: A visual corrosion testing was carried out on wireline using three different coatings.
It is worth noting that the acid strength was the same in all three samples and the acidic composition only differed between the first two samples and the last sample with the presence of component B2.

On to `O=CC=Cc1ccccc1` [ZA, cinnamaldehyde], for which the “film forming, protection of the stainless steel” value in assay [1] (90° C. to 110° C.) is on record as “effective film former”. Turning to `CC(C)=CCCC(C)=CC=O` (racemic) [citral, (±)-3,7-Dimethyl-2,6-octadienal], the prevention of pitting entry in assay [1] (higher temperatures (even 110° C. to 120° C.)) is recorded as “some effectiveness”. In assay [2], the “visual inspection of wireline wire sheathing after acid exposure” value is on record as “completely stripped of its wire sheathing”.
